Test results: patent US5129937A, “Pyridyloxypyrimidine derivatives, preparation process thereof, and herbicidal compositions containing the same as active ingredients” (Mitsui Toatsu Chemicals Incorporated, priority 1989, dated 1992)

How the values were obtained:
[1] = tested on: ALS (acetolactate synthase); test: ALS (Acetolactate Synthase) Inhibition Test, barnyardgrass enzyme; type: biochemical; settings: enzymoreaction inhibition rate at 10 ppm (5 μg/0.5 ml)
[2] = tested on: Barnyardgrass (Echinochloa crus-galli); test: Upland Soil Application Test; type: in vivo; settings: 30 g ai/a; soil application before emergence, wettable powder; observed 30 days later
Method in brief: (§1)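 Pre-emergence soil spray of wettable-powder formulation at 10 l per are, one day after sowing crops (2-3 cm cover) and weed seeds mixed into upland soil, greenhouse-grown. Assessed 30 days later; crop injury and weed damage scored from air-dried weights versus untreated pots.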

Common lambsquarters [3] = test: Upland Soil Application Test; type: in vivo; settings: 30 g ai/a; soil application before emergence, wettable powder; observed 30 days later
Method in brief: as §1

[4] = tested on: Crabgrass (Digitaria adsendens); test: Upland Soil Application Test; type: in vivo; settings: 30 g ai/a; soil application before emergence, wettable powder; observed 30 days later
Method in brief: as §1

[5] = tested on: Foxtail (Setaria viridis); test: Upland Soil Application Test; type: in vivo; settings: 30 g ai/a; soil application before emergence, wettable powder; observed 30 days later
Method in brief: as §1

Foxtail meadow [6] = test: Upland Soil Application Test; type: in vivo; settings: 30 g ai/a; soil application before emergence, wettable powder; observed 30 days later
Method in brief: as §1

Johnsongrass [7] = test: Upland Soil Application Test; type: in vivo; settings: 30 g ai/a; soil application before emergence, wettable powder; observed 30 days later
Method in brief: as §1

Redroot Pigweed [8] = test: Upland Soil Application Test; type: in vivo; settings: 30 g ai/a; soil application before emergence, wettable powder; observed 30 days later
Method in brief: as §1

[9] = tested on: Barnyardgrass (Echinochloa crus-galli); test: Upland Foliar Application Test; type: in vivo; settings: 30 g ai/a; foliar application at 2-3 leaf stage, emulsion; observed on the 30th day
Method in brief: (§2)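 Weeds were sown in pots of upland soil, grown in a greenhouse to 2–3 leaves, then treated once with diluted emulsion of each compound by ultra-low-volume pressure spraying (5 l per are, predetermined rate); injury was assessed 30 days later.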

Common lambsquarters [10] = test: Upland Foliar Application Test; type: in vivo; settings: 30 g ai/a; foliar application at 2-3 leaf stage, emulsion; observed on the 30th day
Method in brief: as §2

[11] = tested on: Crabgrass (Digitaria adsendens); test: Upland Foliar Application Test; type: in vivo; settings: 30 g ai/a; foliar application at 2-3 leaf stage, emulsion; observed on the 30th day
Method in brief: as §2

[12] = tested on: Foxtail (Setaria viridis); test: Upland Foliar Application Test; type: in vivo; settings: 30 g ai/a; foliar application at 2-3 leaf stage, emulsion; observed on the 30th day
Method in brief: as §2

Foxtail meadow [13] = test: Upland Foliar Application Test; type: in vivo; settings: 30 g ai/a; foliar application at 2-3 leaf stage, emulsion; observed on the 30th day
Method in brief: as §2

Johnsongrass [14] = test: Upland Foliar Application Test; type: in vivo; settings: 30 g ai/a; foliar application at 2-3 leaf stage, emulsion; observed on the 30th day
Method in brief: as §2

Redroot Pigweed [15] = test: Upland Foliar Application Test; type: in vivo; settings: 30 g ai/a; foliar application at 2-3 leaf stage, emulsion; observed on the 30th day
Method in brief: as §2

Corn (Zea maize) = test: Upland Foliar Application Test, crop injury; type: in vivo; settings: 30 g ai/a; foliar application at 2-3 leaf stage, emulsion; observed on the 30th day
Method in brief: (§3)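 Post-emergence foliar spray, greenhouse; upland soil pots; plants at 2–3 leaves. Emulsifiable formulation diluted in water, applied by pressure ULV sprayer at 5 l/are, predetermined dose. Degree of damage scored day 30.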

[16] = tested on: Cotton (Gossypium indicum); test: Upland Foliar Application Test, crop injury; type: in vivo; settings: 30 g ai/a; foliar application at 2-3 leaf stage, emulsion; observed on the 30th day
Method in brief: as §3

Soybean (Glycine max) = test: Upland Foliar Application Test, crop injury; type: in vivo; settings: 30 g ai/a; foliar application at 2-3 leaf stage, emulsion; observed on the 30th day
Method in brief: as §3

[17] = tested on: Arrowhead sp. (Sagittaria pygmaea); test: Submerged Soil Treatment Test (Pre-Emergence Treatment); type: in vivo; settings: 30 g ai/a, granule, observed 30 days later
[18] = tested on: Barnyardgrass (Echinochloa crus-galli); test: as above; type: in vivo; settings: 30 g ai/a, granule, observed 30 days later
[19] = tested on: Bulrush (Scirpus juncoides); test: as above; type: in vivo; settings: 30 g ai/a, granule, observed 30 days later

In the case of `COc1cc(OC)nc(Oc2cccnc2C2OCCCO2)n1` [Compound No. 8], the “Inhibition rate (%) Barnyardgrass” value [1] is reported as 86%, the “Herbicidal effects Barnyardgrass (Echinochloa crus-galli)” value (“Herbicidal effects Barnyardgrass” below) [2] is reported as 4 (6-10 (Severe damages)) and the “Herbicidal effects Common lambquarters” value (Common lambsquarters [3]) is reported as 3 (11-40 (Medium damages)). The “Herbicidal effects Crabgrass (Digitaria adsendens)” value [4] was 3 (11-40 (Medium damages)), the “Herbicidal effects Foxtail (Setaria viridis)” value [5] was 3 (11-40 (Medium damages)) and the “Herbicidal effects Foxtail meadow” value (Foxtail meadow [6]) was 4 (6-10 (Severe damages)). The “Herbicidal effects Johnsongrass” value (Johnsongrass [7]) was 4 (6-10 (Severe damages)), the “Herbicidal effects Redroot Pigweed” value (Redroot Pigweed [8]) was 3 (11-40 (Medium damages)) and the “Herbicidal effects Barnyardgrass” value [9] was 4 (6-10 (Severe damages)). For the same molecule, the “Herbicidal effects Common lambquarters” value (Common lambsquarters [10]) was 4 (6-10 (Severe damages)), the “Herbicidal effects Crabgrass (Digitaria adsendens)” value [11] was 3 (11-40 (Medium damages)) and the “Herbicidal effects Foxtail (Setaria viridis)” value [12] was 4 (6-10 (Severe damages)). For the same molecule, the “Herbicidal effects Foxtail meadow” value (Foxtail meadow [13]) was 4 (6-10 (Severe damages)), the “Herbicidal effects Johnsongrass” value (Johnsongrass [14]) was 5 (0-5 (Death)) and the “Herbicidal effects Redroot Pigweed” value (Redroot Pigweed [15]) was 4 (6-10 (Severe damages)). For the same molecule, the “Crop injury Corn (Zea maize)” value (Corn (Zea maize)) was 0 (91-100 (No damages)), the “Crop injury Cotton (Gossypium indicum)” value [16] was 0 (91-100 (No damages)) and the “Crop injury Soybean (Glycine max)” value (Soybean (Glycine max)) was 0 (91-100 (No damages)). For the same molecule, the “Herbicidal effects Arrowhead sp. (Sagittaria pygmaea)” value [17] was 4 (6-10 (Severe damages)), the “Herbicidal effects Barnyardgrass” value [18] was 5 (0-5 (Death)) and the “Herbicidal effects Bulrush (Scirpus juncoides)” value [19] was 4 (6-10 (Severe damages)).
